Data taken from US20230381117A1, “ANTI-OBESITY POTENTIAL OF BISDEMETHOXYCURCUMIN COMPOSITIONS” (SAMI-SABINSA GROUP LIMITED, priority 2020, published 2023).
Where two headings read alike, the source gives them in different places.

Columns and labels:
[1] = system: Mouse 3T3-L1 pre-adipocytes; experiment: Adipogenesis inhibition, lipid accumulation by Oil red O staining in cultured 3T3L1; format: cell-based
Method: Stock was diluted 1000 times in DMEM to get 10 μg/ml final concentration and serially diluted. Insulin (Hi Media) was bought as a solution at a concentration of 20 mg/ml. This was diluted to 1 μg/ml in DMEM. IBMX (Sigma)—Stock of 5 mM was prepared in DMEM, and diluted 10 times to be used at a final concentration of 0.5 mM. Dexamethasone (Sigma)—A stock of 10 μM was prepared in DMEM and diluted 40 times to get a final concentration of 0.25 μM. Mouse 3T3-L1 pre-adipocytes were cultured in DMEM media containing 25 mM glucose, 10% heat-inactivated new born calf serum (NBCS) and antibiotics at 37° C. and 5% CO2. When the cells were 70-80% confluent, they were trypsinized, washed and seeded in 48 well plates at a density of 3×10^4 cells per well. […] After differentiation for two days, The media was replaced with DMEM containing insulin (1 μg/mL) and different concentrations of test ingredients on alternate days until the cells were processed after 3rd progression. Untreated cells grown in differentiation media and undifferentiated cells grown in NBCS media were taken as adipogenesis positive and negative controls for the experiment. Quantification of triglycerides accumulated in adipocytes was done by Oil red O staining.

[2] = system: high fat diet induced obesity in C57 mice; experiment: High fat diet induced obesity in C57 mice; format: in vivo, C57/BL6 mice; details: high fat diet fed mice, 50 mg/kgbw; FIG. 6
Method: Animals-C57/BL6 mice, 6-8 weeks of age and 8 animals/Group (4 Male and 4 Female) were used for the study. […] The temperature and relative humidity was recorded once daily. Feed: […] Water was provided along with High Fat Diet to the animals throughout the acclimatization and experimental period. Water from water filter cum purifier was provided in animal feeding bottle with stainless steel sipper tubes. The design of the study groups is depicted in table 4. [table] Body weight of the animals was recorded in all the days of experimental period. At the end of the experimental period, the animals were sacrificed by cervical dislocation. Blood was collected and Serum was separated by centrifugation and used for the analysis of biochemical parameters. […] The following parameters were measured in the above groups: • Measurement of Body weight: Determination of Organ Weight13 Liver, Visceral adipose tissue (VAT) and subcutaneous adipose tissue (SAT) • Estimation of Cholesterol (Zak et al., (2009) A new method for the determination of serum cholesterol. J Clin Endocrinol Metab., 94(7), 2215-2220) • Estimation of Triglycerides (Foster L. B and Dunn R. T. (1973) Stable reagents for determination of serum triglycerides by a colorimetric Hantzsch condensation method. Clin Chem, 196, 338-340). • Estimation of HDL Cholesterol (Burstein et al., (1970). Determination of HDL cholesterol. […]

[3] = Table 2B, 1.5625 μg/ml, 3T3-L1, Oil red O, read-out: Adipogenesis inhibition
[4] = Table 2B, 3.125 μg/ml, 3T3-L1, Oil red O, read-out: Adipogenesis inhibition
[5] = 3T3-L1, read-out: Adipogenesis inhibition

Row | Structure (SMILES) | inhibition at 1.5625 µg/mL [1, 3] [%] | inhibition at 3.125 µg/mL [1, 4] [%] | Adverse effect on weight of the liver / critical organs [2] | inhibition at 1.5625 µg/mL [1, 5] [%] | inhibition at 3.125 µg/mL [1, 5] [%]
1 | O=C(/C=C/c1ccc(O)cc1)CC(=O)/C=C/c1ccc(O)cc1 [BDMC, bisdemethoxycurcumin] | 20.2 | 16.2 | does not induce any adverse effects | – | –
2 | COc1cc(/C=C/C(=O)CC(=O)/C=C/c2ccc(O)c(OC)c2)ccc1O [Curcumin, curcumin] | 11.6 | 11.1 | – | – | –
3 | COc1cc(/C=C/C(O)=C/C(=O)/C=C/c2ccc(O)cc2)ccc1O [DMC, demethoxycurcumin] | – | – | – | 21 | 19.4
